Read-outs that look alike come from different tables or passages of the source.
How the values were obtained:
human OX1R = biological target: T1, human OX1R (Homo sapiens, UniProt O43613); assay: Agonist activity against OX1R: intracellular calcium (Fura-2AM, FDSS7000) in CHOOX1R cells; assay type: cell-based; conditions: for Emax at 0.1 µM / Emax at 1 µM / Emax at 10 µM: read-out: Response (%) OX1R
T1 construct: expressed in transfected cells; host or cells: CHO (Chinese hamster ovary) cells, line CHOOX1R, co-expressing NFAT-luciferase
T1 sequence (O43613 1-425): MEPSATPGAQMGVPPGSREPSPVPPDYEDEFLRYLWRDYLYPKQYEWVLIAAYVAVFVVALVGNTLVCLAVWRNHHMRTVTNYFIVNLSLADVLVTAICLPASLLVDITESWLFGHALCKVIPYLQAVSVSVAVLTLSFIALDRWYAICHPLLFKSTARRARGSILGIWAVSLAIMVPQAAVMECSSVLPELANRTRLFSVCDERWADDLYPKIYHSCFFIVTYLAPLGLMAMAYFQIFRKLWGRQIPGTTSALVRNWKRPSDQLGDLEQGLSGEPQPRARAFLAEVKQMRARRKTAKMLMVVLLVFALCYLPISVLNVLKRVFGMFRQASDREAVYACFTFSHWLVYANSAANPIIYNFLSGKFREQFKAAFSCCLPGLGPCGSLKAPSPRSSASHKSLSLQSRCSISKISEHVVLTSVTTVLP
Experimental: (§1) Evaluation of Agonist Activity Against OX1R and OX2R
(§2) NAFT-luciferase gene and human OX1R gene were constitutively expressed in CHO cell, which is a cell line derived from Chinese hamster ovary to establish a cell line (CHOOX1R) and NAFT-luciferase gene and human OX2R gene were constitutively expressed in CHO cell to establish a cell line (CHOOX2R). The respective cells were seeded in a 96-well Multiplate at 10,000 cells/well and cultured in a 5% FBS (Thermo Scientific)-added DMEM medium (Sigma-Aldrich) for 48 hr. The medium was removed, an assay buffer (20 mM HEPES (Sigma-Aldrich), Hanks' balanced salt solution (Gibco), 0.1% BSA (Sigma-Aldrich), 2.5 mM probenecid acid (Wako Pure Chemical Industries, Ltd.)) (100 μL) containing 5 μM Fura-2AM (Cayman Chemical) was added, and the cells were incubated for 60 min. The buffer containing Fura-2AM was removed, and an assay buffer (75 μL) was added. An assay buffer (25 μL) containing a test compound was added thereto to start the reaction. Changes in the intracellular calcium ion concentration due to the reaction were measured by measuring the fluorescence intensity ratio by dual wavelength excitation at 340 and 380 nm, by using FDSS7000 (Hamamatsu Photonics K.K.). The test compound was dissolved in DMSO to 10 mM, and diluted with the assay buffer to a final concentration of 10^−7M to 10^−5M (final concentration of DMSO 1%).
(§3) (As used herein, Response in Table 21 to Table 27 is a value obtained by dividing the agonist activity value, when the test compound is evaluated with orexin-A as a full-agonist (maximum value of agonist activity: 100%), at 10 μM, 1.0 μM, 0.1 μM by the agonist activity value of orexin-A.)

human OX2R = biological target: T2, human OX2R (Homo sapiens, UniProt O43614); assay: Agonist activity against OX2R: intracellular calcium (Fura-2AM, FDSS7000) in CHOOX2R cells; assay type: cell-based; conditions: relative to orexin-A as full agonist (100%)
T2 construct: expressed in transfected cells; host or cells: CHO (Chinese hamster ovary) cells, line CHOOX2R, co-expressing NFAT-luciferase
T2 sequence (O43614 1-444): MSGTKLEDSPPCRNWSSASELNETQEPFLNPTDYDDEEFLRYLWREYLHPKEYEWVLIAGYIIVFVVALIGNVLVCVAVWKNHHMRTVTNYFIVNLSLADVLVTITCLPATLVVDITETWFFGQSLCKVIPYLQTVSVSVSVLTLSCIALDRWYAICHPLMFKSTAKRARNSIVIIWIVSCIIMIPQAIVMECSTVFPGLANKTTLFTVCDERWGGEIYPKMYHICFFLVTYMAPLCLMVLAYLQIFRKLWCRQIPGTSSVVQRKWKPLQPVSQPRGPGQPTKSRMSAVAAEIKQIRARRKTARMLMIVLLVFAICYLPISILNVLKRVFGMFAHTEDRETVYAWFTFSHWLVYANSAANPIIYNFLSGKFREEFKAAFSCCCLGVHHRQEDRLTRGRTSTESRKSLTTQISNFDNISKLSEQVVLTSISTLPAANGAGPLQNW
Experimental: as §1, §2, §3

[1] = test compound 0.1 μM, relative to orexin-A as full agonist (100%)
[2] = test compound 1.0 μM, relative to orexin-A as full agonist (100%)
[3] = test compound 10 μM, relative to orexin-A as full agonist (100%)
[4] = 0.1 μM test compound, relative to orexin-A as full agonist (100%)
[5] = 1.0 μM test compound, relative to orexin-A as full agonist (100%)
[6] = 10 μM test compound, relative to orexin-A as full agonist (100%)

Row | Structure (SMILES) | Response (%) OX1R (human OX1R; [1]) | Response (%) OX1R (human OX1R; [2]) | Response (%) OX1R (human OX1R; [3]) | Response (%) OX2R (human OX2R; test compound 0.1 μM) | Response (%) OX2R (human OX2R; test compound 1.0 μM) | Response (%) OX2R (human OX2R; test compound 10 μM) | Response (%) OX1R (human OX1R; [4]) | Response (%) OX1R (human OX1R; [5]) | Response (%) OX1R (human OX1R; [6]) | Response (%) OX2R (human OX2R; 0.1 μM test compound) | Response (%) OX2R (human OX2R; 1.0 μM test compound) | Response (%) OX2R (human OX2R; 10 μM test compound) | also measured
1 | COc1ccc(-c2cccc(C(=O)N(C)C)c2)cc1S(=O)(=O)Nc1cccc(NC(=O)C[S+]([O-])C(c2ccccc2)c2ccccc2)c1 (stereo not drawn) [Example 13] | – | – | – | – | – | – | <5% | 63% | 107% | 11% | 117% | 109% | –
2 | COc1ccc(-c2cccc(C(=O)N(C)C)c2)cc1S(=O)(=O)Nc1cccc(NC(=O)Nc2cccc(N(C)C)c2)c1OC [Example 123, 3′-(N-(3-(3-(3-(dimethylamino)phenyl)ureido)-2-methoxyphenyl)sulfamoyl)-4′-methoxy-N,N-dimethyl-[1,1′-biphenyl]-3-carboxamide] | – | – | – | 63% | 111% | 111% | – | – | – | – | – | – | Emax at 0.1 µM (human OX1R): < 5%; Emax at 1 µM (human OX1R): 6%; Emax at 10 µM (human OX1R): < 5%
3 | COc1ccc(-c2cccc(C(=O)N(C)C)c2)cc1S(=O)(=O)Nc1cccc(N(C)C(=O)N(C)c2cccc(N(C)C)c2)c1 [Example 126, 3′-(N-(3-(3-(3-(dimethylamino)phenyl)-1,3-dimethylureido)phenyl)sulfamoyl)-4′-methoxy-N,N-dimethyl-[1,1′-biphenyl]-3-carboxamide] | – | – | – | 7% | 37% | 85% | – | – | – | – | – | – | Emax at 0.1 µM (human OX1R): 5%; Emax at 1 µM (human OX1R): 5%; Emax at 10 µM (human OX1R): < 5%
4 | COc1ccc(-c2cccc(C(=O)N(C)C)c2)cc1S(=O)(=O)Nc1cccc(NC(=O)Nc2ccc(N)cc2)c1 [Example 55] | – | – | – | – | – | – | <5% | <5% | <5% | <5% | 54% | 105% | –
5 | COc1ccc(-c2cccc(C(=O)N(C)C)c2)cc1S(=O)(=O)Nc1cccc(NC(=O)Nc2cccc([N+](=O)[O-])c2)c1 [Example 57] | – | – | – | – | – | – | <5% | <5% | <5% | 91% | 92% | 60% | –
6 | COc1ccc(-c2cccc(C(=O)N(C)C)c2)cc1S(=O)(=O)Nc1cccc(NC(=O)Nc2cccc(NC(=NC(=O)OC(C)(C)C)NC(=O)OC(C)(C)C)c2)c1 [Example 64] | – | – | – | – | – | – | <5% | <5% | <5% | <5% | <5% | <5% | –
7 | COc1cccc(Nc2cccc(NS(=O)(=O)c3cc(-c4cccc(C(=O)N(C)C)c4)ccc3OC)c2)c1 [Example 32] | – | – | – | – | – | – | <5% | <5% | 14% | 13% | 79% | 88% | –
8 | COc1ccc(-c2cccc(C(=O)N(C)C)c2)cc1S(=O)(=O)Nc1cccc(NC(=O)Nc2cccc(NC(=O)OC(C)(C)C)c2)c1 [Example 62] | – | – | – | – | – | – | 9% | 8% | 13% | 6% | 7% | 9% | –

Second part, led by results:

Row | Response (%) OX1R (human OX1R; [1]) | Response (%) OX1R (human OX1R; [2]) | Response (%) OX1R (human OX1R; [3]) | Response (%) OX2R (human OX2R; test compound 0.1 μM) | Response (%) OX2R (human OX2R; test compound 1.0 μM) | Response (%) OX2R (human OX2R; test compound 10 μM) | Response (%) OX1R (human OX1R; [4]) | Response (%) OX1R (human OX1R; [5]) | Response (%) OX1R (human OX1R; [6]) | Response (%) OX2R (human OX2R; 0.1 μM test compound) | Response (%) OX2R (human OX2R; 1.0 μM test compound) | Response (%) OX2R (human OX2R; 10 μM test compound) | Structure (SMILES) | also measured
9 | <5% | <5% | 10% | 7% | 47% | 104% | – | – | – | – | – | – | COc1ccc(-c2cccc(C(=O)N(C)C)c2)cc1S(=O)(=O)Nc1ccccc1NC(=O)Nc1cccc(N(C)C)c1 [Example 121] | –
10 | <5% | <5% | 18% | 43% | 96% | 101% | – | – | – | – | – | – | COc1ccc(-c2cccc(C(=O)N(C)C)c2)cc1S(=O)(=O)Nc1cccc(N2CCN(c3ccc(N(C)C)cc3)C2=O)c1 [Example 131] | –
11 | 7% | 6% | 7% | 7% | 79% | 99% | – | – | – | – | – | – | COc1ccc(C(=O)NCCCNC(=O)OC(C)(C)C)cc1S(=O)(=O)Nc1cccc(NC(=O)Nc2cccc(N(C)C)c2)c1 [Example 104] | –
12 | <5% | <5% | <5% | 7% | 8% | 31% | – | – | – | – | – | – | COc1ccc(-c2cccc(C(=O)N(C)C)c2)cc1S(=O)(=O)Nc1cccc(NS(C)(=O)=O)c1 [Example 89] | –
13 | – | – | – | – | – | – | – | – | – | 61% | 94% | 95% | COc1ccc(-c2cccc(C(=O)N(C)C)c2)cc1S(=O)(=O)Nc1cccc(NC(=S)Nc2ccccc2)c1 [Example 75, 4′-methoxy-N,N-dimethyl-3′-(N-(3-(3-phenylthioureido)phenyl)sulfamoyl)-[1,1′-biphenyl]-3-carboxamide] | Emax at 0.1 µM (human OX1R; [4]): < 5%; Emax at 1 µM (human OX1R; [5]): < 5%; Emax at 10 µM (human OX1R; [6]): 30%
14 | – | – | – | – | – | – | 6% | 8% | 9% | 15% | 83% | 103% | COc1ccc(-c2cccc(C(=O)N(C)C)c2)cc1S(=O)(=O)Nc1cccc(NC(=O)Nc2cccs2)c1 [Example 67] | –
15 | – | – | – | – | – | – | <5% | <5% | 14% | 23% | 89% | 86% | COc1ccc(-c2cccc(C(=O)N(C)C)c2)cc1S(=O)(=O)Nc1cccc(NC(=N)Nc2cccc(C)c2)c1 [Example 78] | –
16 | <5% | <5% | <5% | <5% | 6% | 73% | – | – | – | – | – | – | CCN(Cc1cccnc1)C(=O)c1ccc(OC)c(S(=O)(=O)Nc2cccc(NC(=O)Nc3ccccc3N(C)C)c2)c1 [Example 113] | –
17 | – | – | – | – | – | – | 6% | 6% | 6% | 9% | 9% | 46% | COc1ccc(-c2cccc(C(=O)N(C)C)c2)cc1S(=O)(=O)Nc1cccc(NC(=O)Nc2ccncc2)c1 [Example 70] | –
18 | 7% | 7% | 9% | 15% | 13% | 13% | – | – | – | – | – | – | COc1ccc(-c2cccc(C(=O)N(C)C)c2)cc1S(=O)(=O)Nc1cccc(NS(=O)(=O)c2cccc(F)c2)c1 [Example 88] | –

Reference: patent publication US10351522B2, “Sulfonamide derivative and pharmaceutically acceptable acid addition salt thereof” (UNIVERSITY OF TSUKUBA, priority 2015, dated 2019)
